# Results from paper PMC11714206, “Massively Parallel Screening of Toll/Interleukin‐1 Receptor (TIR)‐Derived Peptides Reveals Multiple Toll‐Like Receptors (TLRs)‐Targeting Immunomodulatory Peptides” (Advanced Science, 2024).
# Target: T1, MAL^TIR (Homo sapiens, UniProt P58753)
# T1 construct: MAL (residues 79–221); 6xHis; made in house; host or cells: E. coli BL21 (DE3)
# Assay: T‐Surf phage library (P8 and P3) selection against MAL^TIR, four rounds, NGS read counts
# Assay type: binding
# Conditions: for P3_MAL Rank (after) / P3_MAL Rank (before): P3 library; for Population: P3_MAL pool: P3 T-Surf phage library, 4th round of selection against MAL TIR, share of NGS reads; for P8_MAL Rank (after) / P8_MAL Rank (before): P8 library
# Procedure, shortened: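 Library of 190 946 TIR‐derived peptides on P8 or P3 was panned on immobilized TIR domain coated at 5 µg mL^−1, BSA‐blocked, 1 h binding at RT, PBS/0.5% Tween‐20 washes, HCl elution, TG1 amplification. Fourth‐round pools were PCR‐barcoded, sequenced (100 bp paired‐end, Phred ≥30), and peptides ranked by read counts.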
# [1] = selection against MAL, rank after grouping
# [2] = selection against MAL, rank before grouping
# [3] = selection against MAL TIR, rank by count after grouping
# [4] = selection against MAL TIR, rank by count before grouping
# [5] = P3_MAL: rank by count after grouping
# [6] = P3_MAL: rank by count before grouping
# [7] = 4R selection against MAL, rank after grouping
# [8] = 4R selection against MAL, rank before grouping
# [9] = selection against MAL, rank by count after grouping
# [10] = selection against MAL, rank by count before grouping
# T1 sequence (P58753 79-221): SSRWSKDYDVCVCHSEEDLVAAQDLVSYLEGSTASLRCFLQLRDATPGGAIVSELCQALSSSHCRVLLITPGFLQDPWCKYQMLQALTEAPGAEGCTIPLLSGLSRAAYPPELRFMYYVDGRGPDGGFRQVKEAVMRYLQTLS
sequence,measurement,setting,value
RGFLSHRRYHLQAKDH,P3_MAL Rank (after),[1],539
same,P3_MAL Rank (before),[2],2396
RGFLSKLSQHILKREK,P3_MAL Rank (after),[3],283
same,P3_MAL Rank (before),[4],894
RGFLSNLGHHLQAKDH,Rank (after),[5],440
same,Rank (before),[6],2401
RGFLYQAFAREGFKIFM,P3_MAL Rank (after),[7],581
same,P3_MAL Rank (before),[8],2353
RGFMSHLRHPLQAKDH,P3_MAL Rank (after),[7],616
same,P3_MAL Rank (before),[8],2412
RGFREGLWRLLELSKK,Population,,0.00902%
same,Rank (after),[5],103
same,Rank (before),[6],111
RGFRSHLRQHLQAKDH,P3_MAL Rank (after),[9],772
same,P3_MAL Rank (before),[10],2410
RGFTSHLYHRIQRNSN,P3_MAL Rank (after),[7],605
same,P3_MAL Rank (before),[8],2419
RGLLSHLRHHLLGKDH,Rank (after),[5],450
same,Rank (before),[6],2429
RGLLSQLRHHLQAKDH,P3_MAL Rank (after),[1],578
same,P3_MAL Rank (before),[2],2421
RGVLSRLRHHLQAKDH,P3_MAL Rank (after),[1],551
same,P3_MAL Rank (before),[2],2427
RGYLRHVRHHLQAKDH,P3_MAL Rank (after),[7],657
same,P3_MAL Rank (before),[8],2426
RHFAGLLYDRLTKTGV,Rank (after),[5],414
same,Rank (before),[6],2563
RHHRGPLGSDLQYHME,P3_MAL Rank (after),[1],521
same,P3_MAL Rank (before),[2],2572
RHNFIGYLYQALYRIG,P8_MAL Rank (after),[9],723
same,P8_MAL Rank (before),[10],2174
RKFEAYLFQALANKGI,P8_MAL Rank (after),[3],208
same,P8_MAL Rank (before),[4],2257
RKFVAYPFQALANKGI,P8_MAL Rank (after),[9],703
same,P8_MAL Rank (before),[10],2255
RKFWAYLFQALANKGS,P8_MAL Rank (after),[1],551
same,P8_MAL Rank (before),[2],2253
RKGDLISDELLIAIEE,P8_MAL Rank (after),[1],575
same,P8_MAL Rank (before),[2],2300
RLLKCTEALHQFHNWV,P3_MAL Rank (after),[1],566
same,P3_MAL Rank (before),[2],2482
RLLKWGYPWFWDRLRFA,Rank (after),[5],187
same,Rank (before),[6],907
RLLKWIETLHQFHSWV,P3_MAL Rank (after),[7],653
same,P3_MAL Rank (before),[8],2489
RLLKWKDALHQFHSWV,Population,,0.0132%
RLLKWKDALYEAANLS,Rank (after),[5],110
same,Rank (before),[6],342
RLLKWKEALHHVLQK,P3_MAL Rank (after),[9],690
same,P3_MAL Rank (before),[10],2502
RLLKWKEALHQFHSSL,Rank (after),[5],172
same,Rank (before),[6],2515
RLLKWKEALHQFHSWV,Population,,0.00451%
same,Rank (after),P8_MAL: rank by count after grouping,115
same,Rank (before),P8_MAL: rank by count before grouping,655
RLLKWKEALHQFIAG,P3_MAL Rank (after),[3],264
same,P3_MAL Rank (before),[4],2518
RLLKWKEALHQFQTWL,P3_MAL Rank (after),[9],701
same,P3_MAL Rank (before),[10],2516
RLLKWKEALKQRAL,P3_MAL Rank (after),[1],518
same,P3_MAL Rank (before),[2],2525
RLLKWKEALQQFHSGV,Rank (after),[5],177
same,Rank (before),[6],2497
RLLKWKEALQQVHSWV,Rank (after),[5],148
same,Rank (before),[6],2470
RLLKWKEALTAAANLSGW,P3_MAL Rank (after),[7],642
same,P3_MAL Rank (before),[8],2524
RLLKWKEEMHQFHSWV,P3_MAL Rank (after),[3],206
same,P3_MAL Rank (before),[4],2531
RLLKWKKRCISFIAG,Rank (after),[5],400
same,Rank (before),[6],2492
RLLKWNEELHLFHSWV,P3_MAL Rank (after),[7],612
same,P3_MAL Rank (before),[8],2490
RLLKWQQAMHQFHRWV,P3_MAL Rank (after),[1],563
same,P3_MAL Rank (before),[2],2488
RLLKWWDSLTQASNI,P3_MAL Rank (after),[9],727
same,P3_MAL Rank (before),[10],2485
RLLNGKKRCISFIAG,P3_MAL Rank (after),[3],261
same,P3_MAL Rank (before),[4],2475
RLLNWKEALHQFHSWV,Population,,0.00338%
RLLNWKEARHQFHSWV,P3_MAL Rank (after),[3],243
same,P3_MAL Rank (before),[4],2479
RLMKWKEALHPFHSWV,Rank (after),[5],180
same,Rank (before),[6],2553
RLQECKEALHQFHSWV,P3_MAL Rank (after),[9],737
same,P3_MAL Rank (before),[10],2549
RLQEWRETLCQGHSRV,P3_MAL Rank (after),[7],650
same,P3_MAL Rank (before),[8],2550
RLQKWKEALHQIHSRV,Rank (after),[5],189
same,Rank (before),[6],2551
RLRKWKEALHQFHSWG,P3_MAL Rank (after),[7],636
same,P3_MAL Rank (before),[8],2547
RLRKWKEALQQFHSWV,Rank (after),[5],139
same,Rank (before),[6],2548
RLRKWKGALHHFLSWG,P3_MAL Rank (after),[9],728
same,P3_MAL Rank (before),[10],2544
RLWDRLRYLMPRNNHH,P3_MAL Rank (after),[1],571
same,P3_MAL Rank (before),[2],2325
RNFAGLLYDRLTKWA,P3_MAL Rank (after),[7],630
same,P3_MAL Rank (before),[8],2594
RNFAGQLAGLTLQNGDEGK,P3_MAL Rank (after),[7],607
same,P3_MAL Rank (before),[8],2604
